Measurements published in patent US8304394B2, “Low side effect pharmaceutical composition containing isoniazid” (priority 2008, dated 2012).
Like-named read-outs stand apart in the source and are kept apart here.

Key:
[1] = biological target: human liver microsomal cytochrome P450 2E1 (CYP2E1) (Homo sapiens, UniProt P05181); assay: Chlorzoxazone hydroxylation inhibition (6-OH-CZX by LC/MS/MS)
[2] = biological target: cDNA expressed human cytochrome P450 2E1 (CYP2E1) (Homo sapiens, UniProt P05181)
CYP2E1 [3] = biological target: T1, CYP2E1 (Homo sapiens, UniProt P05181); assay: in vitro; settings: for inhibition at 40 min, 16.5 µM / inhibition at 40 min, 66 µM: pH 7.4, Inhibition of CYP 2E1 (%); for inhibition at 40 min, 16.5 µM: tested concentration 16.5 μM; for inhibition at 40 min, 66 µM: tested concentration 66 μM; for inhibition at 40 min, 33 µM: pH 7.4
CYP2E1 [4] = biological target: T1, CYP2E1; assay: Chlorzoxazone hydroxylation inhibition (6-OH-CZX by LC/MS/MS); settings: human, microsomes, pH 7.4

Sequence of cDNA expressed human cytochrome P450 2E1 (CYP2E1) (P05181 whole entry): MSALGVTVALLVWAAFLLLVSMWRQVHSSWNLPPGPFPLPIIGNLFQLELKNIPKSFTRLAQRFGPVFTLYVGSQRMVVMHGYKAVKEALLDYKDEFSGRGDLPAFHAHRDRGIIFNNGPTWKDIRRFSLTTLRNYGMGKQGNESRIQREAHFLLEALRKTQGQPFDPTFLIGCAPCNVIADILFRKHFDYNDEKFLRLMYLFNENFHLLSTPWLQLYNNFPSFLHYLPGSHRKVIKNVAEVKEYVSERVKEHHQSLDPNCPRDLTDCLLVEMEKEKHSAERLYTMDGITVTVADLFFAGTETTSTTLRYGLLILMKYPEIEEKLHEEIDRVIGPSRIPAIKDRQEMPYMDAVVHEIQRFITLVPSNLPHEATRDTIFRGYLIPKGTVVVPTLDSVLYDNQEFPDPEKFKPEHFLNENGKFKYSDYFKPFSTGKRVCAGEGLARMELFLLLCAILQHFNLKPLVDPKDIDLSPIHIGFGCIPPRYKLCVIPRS
T1 sequence (P05181 whole entry): as above
Sequence of human liver microsomal cytochrome P450 2E1 (CYP2E1) (P05181 whole entry): as above

| Compound | inhibition at 30 min, 16.5 µM (CYP2E1 [4]) [%] | inhibition at 30 min, 33 µM (CYP2E1 [4]) [%] | inhibition at 30 min, 66 µM (CYP2E1 [4]) [%] | also measured |
| --- | --- | --- | --- | --- |
| C=C(C)C1CC=C(C)CC1 (single isomer, unassigned; (+)) [(+)-Limonene] | – | – | – | Inhibition of CYP 2E1 (%) ([1]; tested concentration 16.5 μM): 13.77 ± 1.96%; Inhibition of CYP 2E1 (%) ([1]; tested concentration 33 μM): 38.05 ± 1.95%; Inhibition of CYP 2E1 (%) ([1]; tested concentration 66 μM): 63.64 ± 2.74% |
| CCCCC[C@H](O)CC(=O)CCc1ccc(O)c(OC)c1 [6-Gingerol] | – | – | – | Inhibition of CYP 2E1 (%) ([2]; tested concentration 33 μM): 39.83 ± 2.32% |
| Oc1cc(O)c2c(c1)O[C@H](c1ccc(O)c(O)c1)[C@@H](O)C2 [(+)-Catechin] | – | – | – | Inhibition of CYP 2E1 (%) ([2]; tested concentration 16.5 μM): 41.53 ± 7.62%; Inhibition of CYP 2E1 (%) ([2]; tested concentration 33 μM): 33.83 ± 8.76%; Inhibition of CYP 2E1 (%) ([2]; tested concentration 66 μM): 16.45 ± 9.67% |
| Oc1cc(O)c2c(c1)O[C@@H](c1ccc(O)c(O)c1)[C@@H](O)C2 [(+)-Epicatechin] | – | – | – | Inhibition of CYP 2E1 (%) ([1]; tested concentration 16.5 μM): 66.71 ± 1.79%; Inhibition of CYP 2E1 (%) ([1]; tested concentration 33 μM): 52.32 ± 1.59% |
| O=C1c2c(O)cc(O)cc2O[C@H](c2ccc(O)c(O)c2)[C@H]1O [(+)-Taxifolin] | – | – | – | inhibition at 40 min, 16.5 µM (CYP2E1 [3]): 22.6 ± 11.7%; inhibition at 40 min, 66 µM (CYP2E1 [3]): 34.5 ± 3.47% |
| Oc1cc(O)c2c(c1)O[C@H](c1ccc(O)c(O)c1)[C@H](O)C2 [(−)-Epicatechin] | – | – | – | Inhibition of CYP 2E1 (%) ([2]; tested concentration 16.5 μM): 18.27 ± 9.34%; Inhibition of CYP 2E1 (%) ([2]; tested concentration 33 μM): 15.02 ± 5.50%; Inhibition of CYP 2E1 (%) ([2]; tested concentration 66 μM): 2.57 ± 11.60% |
| Oc1cc(O)c2c(c1)O[C@H](c1cc(O)c(O)c(O)c1)[C@H](O)C2 [(−)-Epigallocatechin] | – | – | – | Inhibition of CYP 2E1 (%) ([1]; tested concentration 16.5 μM): 38.95 ± 1.92%; Inhibition of CYP 2E1 (%) ([1]; tested concentration 33 μM): 36.40 ± 2.18%; Inhibition of CYP 2E1 (%) ([1]; tested concentration 66 μM): 57.08 ± 1.85% |
| O=C(O[C@@H]1Cc2c(O)cc(O)cc2O[C@@H]1c1cc(O)c(O)c(O)c1)c1cc(O)c(O)c(O)c1 [(−)-Epigallocetechin-3-gallate] | – | – | – | Inhibition of CYP 2E1 (%) ([1]; tested concentration 16.5 μM): 50.19 ± 1.89%; Inhibition of CYP 2E1 (%) ([1]; tested concentration 33 μM): 60.53 ± 2.06%; Inhibition of CYP 2E1 (%) ([1]; tested concentration 66 μM): 72.16 ± 1.02% |
| O=c1cc(-c2ccc(O)cc2)oc2cc(O)cc(O)c12 [Apigenin] | 28.9 ± 1.54 | 36.8 ± 1.98 | 47.5 ± 3.66 | – |
| O=c1cc(-c2ccccc2)oc2cc(O)c(O)c(O)c12 [Baicalein] | 35.3 ± 1.51 | 47.8 ± 3.4 | 50.1 ± 5.11 | – |
| O=C(O)[C@H]1O[C@@H](Oc2cc3oc(-c4ccccc4)cc(=O)c3c(O)c2O)[C@H](O)[C@@H](O)[C@@H]1O [Baicalin] | 22.5 ± 2.24 | 35.6 ± 3.09 | 49.3 ± 2.26 | – |
| O=c1c(-c2ccc(O)cc2)coc2cc(O)ccc12 [Daidzein] | 73.5 ± 1.74 | 76.3 ± 2.28 | 86.8 ± 1.04 | – |
| COc1ccc(-c2cc(=O)c3c(O)cc(O[C@@H]4O[C@H](CO[C@@H]5O[C@@H](C)[C@H](O)[C@@H](O)[C@H]5O)[C@@H](O)[C@H](O)[C@H]4O)cc3o2)cc1O [Diosmin] | 60 ± 1.96 | 43.1 ± 3.57 | 21.6 ± 1.19 | – |
| CCCCCCCCCCCC1=C(O)C(=O)C=C(O)C1=O [Embelin] | – | – | – | inhibition at 40 min, 33 µM (CYP2E1 [3]): 12.3 ± 10.2%; inhibition at 40 min, 16.5 µM (CYP2E1 [3]): 5.95 ± 7.48%; inhibition at 40 min, 66 µM (CYP2E1 [3]): 13.5 ± 11.6% |
| CCCCCCCCCCCCCC(=O)OCC [Ethyl Myristate] | 22.1 ± 0.78 | 41 ± 4.76 | 52 ± 2.38 | – |
| O=c1c(-c2ccc(O)cc2)coc2cc(O)cc(O)c12 [Genistein] | 43.9 ± 2.06 | 30.9 ± 1.62 | 36.9 ± 1.56 | – |
| COc1ccc([C@@H]2CC(=O)c3c(O)cc(O)cc3O2)cc1O [Hesperetin] | 25.7 ± 2.45 | 34.3 ± 2.03 | 44.6 ± 2.35 | inhibition at 40 min, 33 µM (CYP2E1 [3]): 43.3 ± 0.82%; inhibition at 40 min, 16.5 µM (CYP2E1 [3]): 32.1 ± 5.8%; inhibition at 40 min, 66 µM (CYP2E1 [3]): 54.8 ± 1.37% |
| COc1ccc([C@@H]2CC(=O)c3c(O)cc(O[C@@H]4O[C@H](CO[C@@H]5O[C@@H](C)[C@H](O)[C@@H](O)[C@H]5O)[C@@H](O)[C@H](O)[C@H]4O)cc3O2)cc1O [Hesperidin] | – | – | – | Inhibition of CYP 2E1 (%) ([1]; tested concentration 16.5 μM): 45.32 ± 1.57%; Inhibition of CYP 2E1 (%) ([1]; tested concentration 33 μM): 50.91 ± 2.81%; Inhibition of CYP 2E1 (%) ([1]; tested concentration 66 μM): 58.57 ± 3.78% |
| O=c1c(O[C@@H]2O[C@H](CO)[C@H](O)[C@H](O)[C@H]2O)c(-c2ccc(O)c(O)c2)oc2cc(O)cc(O)c12 [Hyperoside] | -24.2 ± 1.19 | 35.6 ± 3.68 | 53.5 ± 1.2 | – |
| COc1cc(-c2oc3cc(O)cc(O)c3c(=O)c2O)ccc1O [Isorhamnetin] | 12.1 ± 1.06 | 18.7 ± 1.22 | 36.3 ± 1.59 | – |
| O=c1cc(-c2ccc(O)cc2)oc2cc(O)c([C@@H]3O[C@H](CO)[C@@H](O)[C@H](O)[C@H]3O)c(O)c12 [Isovitexin] | 59.8 ± 1.41 | 67.6 ± 3.24 | 81.8 ± 1.34 | – |
| O=c1c(O)c(-c2ccc(O)cc2)oc2cc(O)cc(O)c12 [Kaempferol] | 66.5 ± 1.71 | 74.74 ± 0.6 | 79.25 ± 0.27 | inhibition at 40 min, 33 µM (CYP2E1 [3]): 70 ± 3.75%; inhibition at 40 min, 16.5 µM (CYP2E1 [3]): 71.9 ± 1.14%; inhibition at 40 min, 66 µM (CYP2E1 [3]): 70.6 ± 2.53% |
